Measured values taken from publication PMC12154284, “FYCO1 Peptide Analogs: Design and Characterization of Autophagy Inhibitors as Co-Adjuvants in Taxane Chemotherapy of Prostate Cancer” (International Journal of Molecular Sciences, 2025).
Entries after “also recorded” stand apart in the source; their conditions may differ.

Assays:
PC cells = details: with Doc, cited from earlier work
From the text: (§1) Many studies have analyzed the nature of autophagy activated by Doc in PC and the impact of autophagy inhibitors on cell proliferation. The results obtained using 3-Methyladenine (3-MA) in association with Doc were contradictory. […] A more convincing result was obtained using the autophagy inhibitor CQ which enhanced the action ...

PC-3 cells [1] = details: with Doc; ref [45]; cited from earlier work
From the text: as §1

[2] = biological target: human recombinant His-tagged LC3B (Homo sapiens, UniProt Q9GZQ8); test: MST binding to human recombinant His-tagged LC3B; details: Table S1
Method: To measure the dissociation constants (Kd) of the peptides on human recombinant His-tagged LC3B protein, MST experiments were carried out on a Monolith NT.115^Pico instrument (see the Materials and Methods section for details).
A constant concentration of red-labelled LC3B (10 nM) was incubated with sixteen 1:1 serial dilutions of peptides (concentration details are consultable in the Supplementary Materials, Table S1). PBS-T (phosphate-buffered saline + 0.05% Tween™ 20), from NanoTemper Technologies, with 2.5% dimethyl sulfoxide (DMSO) (Product No. D8418; Sigma-Aldrich, Saint Louis, MO, USA) was used as buffer. After 15 min of incubation at room temperature, samples were loaded into standard capillaries (Product No. MO-K022; NanoTemper Technologies) and analyzed at 25 °C with 20% excitation power and medium MST power (40%) using the “Binding Affinity” mode available in the MO.Control v1.6 software (NanoTemper Technologies GmbH, München, Germany). Prior to Kd determination, peptide auto-fluorescence was assessed. Data analysis was performed using MO.Affinity Analysis v2.3 software (NanoTemper Technologies GmbH, München, Germany) applying the Kd model for fitting the binding curve, while the figures were generated using GraphPad Prism v8.0.2 software (GraphPad, Boston, MA, USA).
Two independent experiments were performed to determine the Kd value.
RA = Response Amplitude; SNR = Signal -to-Noise Ratio.

[3] = Peptide aggregation in MST capillaries; type: physicochemical
Method: This technique enables the determination of the dissociation constant (Kd) across a concentration range spanning from 1 picomolar (pM) to the millimolar (mM) level. The experimental conditions mirrored those in our previously published work. […] A constant concentration of red-labelled LC3B (10 nM) was incubated with sixteen 1:1 serial dilutions of peptides (concentration details are consultable in the Supplementary Materials, Table S1). PBS-T (phosphate-buffered saline + 0.05% Tween™ 20), from NanoTemper Technologies, with 2.5% dimethyl sulfoxide (DMSO) (Product No. D8418; Sigma-Aldrich, Saint Louis, MO, USA) was used as buffer. After 15 min of incubation at room temperature, samples were loaded into standard capillaries (Product No. MO-K022; NanoTemper Technologies) and analyzed at 25 °C with 20% excitation power and medium MST power (40%) using the “Binding Affinity” mode available in the MO.Control v1.6 software (NanoTemper Technologies GmbH, München, Germany). Prior to Kd determination, peptide auto-fluorescence was assessed. […] The “Capillary Scan” graphs, showing the fluorescence homogeneity in the capillaries of all biophysically tested peptides, are provided in the Supplementary Materials, Figure S5.

PC-3 cells [4] = test: MTT cell viability, PC-3; type: cell-based, Human
Method: The study was conducted on several cancer cells. Human CRPC cell lines (PC-3 and DU145) were purchased from the American Type Culture Collection (ATCC, Manassas, VA, USA) and cultured at 37 °C and 5% CO2 in RPMI 1640 (EuroClone, Milano, Italy) supplemented, respectively, with 7.5% (PC3) and 5% (DU145) FBS (Gibco, ThermoFisher Scientific, Waltham, MA, USA), 1% L-glutamine, and antibiotics (100 IU/mL penicillin G). Luminal A MCF-7 breast cancer cells (ATCC, Manassas, VA, USA) were cultured in Dulbecco’s Modified Eagle Medium/Nutrient Mixture F-12 (DMEM-F12, Gibco Laboratories, Waltham, MA, USA) supplemented with 10% fetal bovine serum (FBS, Gibco Laboratories, Waltham, MA, USA), 1% penicillin/streptomycin (Gibco Laboratories), and 1% L-glutamine (Gibco Laboratories). A549 human lung cancer cell line (ATCC, Manassas, VA, USA) were cultured in Dulbecco’s modified eagle medium (DMEM, Lonza, Switzerland) supplemented with 10% FBS (Gibco Laboratories, Waltham, MA, USA), 1% of 100 u/mL penicillin/streptomycin (Gibco Laboratories), and 1% L-glutamine (Gibco Laboratories). […]
(§2) For viability studies, MTS (Cell Titer 96 Aqueous One Solution Cell Proliferation Assay) (Promega, Nacka, Sweden) and 3-(4,5-dimethylthiazole-2-yl)-2,5-diphenyltetrazolium bromide (MTT) (Sigma-Aldrich, St. Louis, MO, USA) assays were conducted. […] The absorbance (λ = 550 nm) was measured by an EnSpire Multimode Plate reader (Perkin Elmer, Milano, Italy). The absorbance value of untreated cells was set at 100% (control), and the viability of treated cells was expressed as a percentage of the control. […] After 72 h, cell viability was assessed using an MTS assay according to the manufacturer’s protocol using a 96-well-plate spectrophotometer (Varioskan Flash Multimode Reader; ThermoFisher Scientific, Waltham, MA, USA) set at λ = 490 nm. The absorbance value of untreated cells was set at 100% (control), and the viability of treated cells was expressed as a percentage of the control. […]

DU145 cells = test: MTT cell viability, DU145 (ATG5-deficient); type: cell-based, Human; details: 72 h, dose printed 5 mM, n = 6
Method: (§3) The study was conducted on several cancer cells. Human CRPC cell lines (PC-3 and DU145) were purchased from the American Type Culture Collection (ATCC, Manassas, VA, USA) and cultured at 37 °C and 5% CO2 in RPMI 1640 (EuroClone, Milano, Italy) supplemented, respectively, with 7.5% (PC3) and 5% (DU145) FBS (Gibco, ThermoFisher Scientific, Waltham, MA, USA), 1% L-glutamine, and antibiotics (100 IU/mL penicillin G). […]
as §2

[5] = tested on: LC3-I and LC3-II in PC-3 cells; test: Western blot of LC3-I and LC3-II in PC-3 cells; type: cell-based, Human; details: for LC3-I / LC3-II expression, Doc/AM10 experiment: AM10, Doc (25 nM) or both
Method: (§4) PC-3 cells were plated at 2 × 10^5 cells/dish in 6 cm dishes and treated with different compounds. At the end of the treatments the cells were lysed in RIPA buffer. Protein extracts (15–35 μg) were resuspended in presence of reducing Sample buffer (Bio-Rad Laboratories, Segrate, Milano, Italy), heated at 95 °C for 5 min and separated by SDS-PAGE WB. Proteins were transferred onto nitrocellulose or PVDF membranes. After blocking with nonfat dried milk, membranes were incubated with anti-ATG5 (1:1000) (#12994) Cell Signaling Technology Inc. (Boston, MA, USA), anti-LC3 (1:1000) (L8918) (Sigma-Aldrich), anti-SQSTM1/p62 (1:2000) (PA5-20839) (Thermo Fisher Scientific, Waltham, MA, USA), anti-cleaved-caspase-3 (1:500) (#9664) Cell Signaling Technology Inc. primary antibodies overnight at 4 °C. Horseradish peroxidase (HRP) conjugated secondary anti-rabbit or anti-mouse antibodies were used for 1 h at room temperature and the membranes were processed using chemiluminescence kit Cyanagen Ultra (Cyanagen, Bologna, Italy). In each WB experiment alpha-tubulin expression (T6199) (Sigma-Aldrich, St. Louis, MO, USA) was evaluated as a protein control. Relative optical density of the bands was assessed by ImageJ software (version 1.54g). Uncropped WB images are available in the Supporting Information.

p62 in PC-3 cells = test: Western blot of p62 (SQSTM1) in PC-3 cells; type: cell-based, Human; details: 72 h and 96 h
Method: as §4

[6] = tested on: cleaved caspase-3 in PC-3 cells; test: Western blot of cleaved caspase-3 in PC-3 cells; type: cell-based, Human; details: AM10, Doc (25 nM) or both, 48 h
Method: as §4

MCF-7 cells = test: MTS cell viability, MCF-7; type: cell-based; details: 72 h, 0.0025 to 5 μM, n = 4
Method: as §3, §2

A549 cells = test: MTS cell viability, A549; type: cell-based, human; details: 72 h, 0.0025 to 5 μM, n = 4
Method: as §3, §2

A375 cells = test: MTS cell viability, A375; type: cell-based; details: 72 h, 0.0025 to 5 μM, n = 4
Method: as §3, §2

autophagy in PC-3 cells = test: Autophagosome formation and autophagic flux in PC-3 cells (LC3-I, LC3-II, p62); type: cell-based, Human; details: as evidenced by LC3-I
Method: as §4

autophagic response = details: CRPC therapy; ref [39]; cited from earlier work
From the text: An important problem of tumor is represented by therapy resistance. In fact, in prostate cancer, numerous studies have investigated the implications of autophagy in resistance to hormonal therapies or chemotherapeutic agents. […] Docetaxel (Doc), a chemotherapeutic drug which inhibits microtubule depolymerization, represents the first-line treatment for metastatic CRPC. The treatment is effective in the early stages, but over time its efficacy is drastic ...

[7] = tested on: breast and colon cancer cells; details: ref [32]; cited from earlier work
From the text: The growing applications of bromine and iodine substituents in anticancer treatment lend ...

LC3B (Homo sapiens) = LC3B (Homo sapiens) (UniProt Q9GZQ8); details: cited from earlier work

Q: With `Cn1cnc(N)c2ncnc1-2` [3-MA, 3-Methyladenine] as the compound, how does the “effect on chemotherapy efficacy” value (PC cells; ref [43],[47],[48]) read?
A: Its value is “decreased the chemotherapy efficacy”.

Q: What about the “effect on cytotoxic action of Doc” value (PC cells; ref [46] Hu and collaborators) of the same compound?
A: Its value is “enhanced the cytotoxic action of Doc”.

Q: What about the “effect on cytotoxicity of Doc in PC-3 cells” value (PC-3 cells [1]) of the same compound?
A: The value was “does not modify the cytotoxicity of Doc in PC-3 cells”.

Q: Which “Response Amplitude (RA)” value [2] does the source give for `CC[C@H](C)[C@H](NC(=O)[C@H](CC(=O)O)NC(=O)[C@H](Cc1ccc(I)cc1)NC(=O)[C@@H](NC(=O)[C@H](C)NC(=O)[C@@H](N)CC(=O)O)C(C)C)C(=O)N[C@H](C(=O)N[C@H](C(=O)N[C@@H](CC(=O)O)C(=O)N[C@@H](CCC(=O)O)C(=O)N[C@@H](CCC(=O)O)C(=O)N[C@@H](CC(C)C)C(=O)O)[C@@H](C)O)[C@@H](C)CC` [AM2] here?
A: The value was 7.8.

Q: Which “Response Amplitude (RA)” value [2] does the source give for `CC[C@H](C)[C@H](NC(=O)[C@H](CC(=O)O)NC(=O)[C@H](Cc1ccccc1)NC(=O)[C@@H](NC(=O)[C@H](C)NC(=O)[C@@H](N)CC(=O)O)C(C)C)C(=O)N[C@H](C(=O)N[C@H](C(=O)N[C@H]1CSCc2ccc(cc2)CSC[C@@H](C(=O)O)NC(=O)[C@H](CCC(=O)O)NC(=O)[C@H](CCC(=O)O)NC1=O)[C@@H](C)O)[C@@H](C)CC` [AM7] here?
A: Its value is 3.7.

Q: And the “aggregation at highest concentrations, in words” value ([3]; 125, 62.5 and 31.25 µM, MST capillary scan, PBS-T + 2.5% DMSO)?
A: The value was “the three highest concentration points (125, 62.5, and 31.25 µM) were discarded due to aggregation; also recorded: the three highest concentrations (125, 62.5, and 31.25 µM) were excluded from analysis due to aggregation phenomena”.

Q: What about the “concentration at which aggregation is displayed” value ([3]; MST buffer PBS-T + 2.5% DMSO, 25 °C) of the same compound?
A: The value was no less than 31.25 µM.

Q: Which “Response Amplitude (RA)” value [2] does the source give for `CC[C@H](C)[C@H](NC(=O)[C@H](CC(=O)O)NC(=O)[C@H](Cc1ccc(I)cc1)NC(=O)[C@@H](NC(=O)[C@H](C)NC(=O)[C@@H](N)CC(=O)O)C(C)C)C(=O)N[C@@H](CCSC)C(=O)N[C@H](C(=O)N[C@H]1CSSC[C@@H](C(=O)O)NC(=O)[C@H](CCC(=O)O)NC(=O)[C@H](CCC(=O)O)NC1=O)[C@@H](C)O` [AM10] here?
A: The value was 2.8.

Q: What about the PC-3 cell viability (PC-3 cells [4]; MTT, 72 h, 0.0025-5 μM (method), n = 6) of the same compound?
A: The PC-3 cell viability was “all peptides reduce cell viability in a significant dose-dependent manner starting from the 0.025 mM dose up to the 5 mM dose”.

Q: And the “PC-3 cell viability (Conclusions)” value (PC-3 cells [4]; summary statement)?
A: Its value is “diminished cell viability”.

Q: And the DU145 cell viability (DU145 cells)?
A: The DU145 cell viability was “no effect on cell viability”.

Q: And the “LC3-I and LC3-II expression, 48 h” value ([5]; 5 µM, 48 h)?
A: The value was “significantly reduced the level of LC3-I and LC3-II”.

Q: And the “LC3-I and LC3-II expression, 72 h” value ([5]; 72 h)?
A: The value was “retains the ability to inhibit both LC3-I and LC3-II”.

Q: And the “LC3-I / LC3-II expression, Doc/AM10 experiment” value ([5]; 48 h)?
A: Its value is “reduces the expression of both LC3-I and LC3-II”.

Q: And the p62 expression (p62 in PC-3 cells)?
A: Its p62 expression is “the expression of p62 increases significantly”.

Q: What about the “cleaved caspase-3 / apoptosis” value [6] of the same compound?
A: Its value is “does not induce caspase-3 activation”.

Q: And the MCF-7 cell viability (MCF-7 cells)?
A: Its MCF-7 cell viability is “concentration-dependent reduction in cell viability”.

Q: And the A549 cell viability (A549 cells)?
A: The A549 cell viability was “concentration-dependent reduction in cell viability”.

Q: And the A375 cell viability (A375 cells)?
A: Its A375 cell viability is “concentration-dependent reduction in cell viability”.

Q: And the “autophagosome formation and autophagic flux (Conclusions)” value (autophagy in PC-3 cells)?
A: The value was “inhibited autophagosome formation and autophagic flux”.

Q: With `C[C@]12CC[C@H](O)CC1=CC[C@@H]1[C@@H]2CC[C@]2(C)C(c3cccnc3)=CC[C@@H]12` [Abiraterone] as the compound, how does the autophagic response (autophagic response) read?
A: The autophagic response was “activate an autophagic response that reduces their effectiveness”.

Q: Which “effect on the action of Doc” value (PC cells; ref [49]) does the source give for `CCN(CC)CCCC(C)Nc1ccnc2cc(Cl)ccc12` (stereo not shown) [CQ, Chloroquine] here?
A: The value was “enhanced the action of Doc by reducing resistance to chemotherapy”.

Q: What does the source list for `CC(=O)O[C@@]12CO[C@@H]1C[C@H](O)[C@@]1(C)C(=O)[C@H](O)C3=C(C)[C@@H](OC(=O)[C@H](O)[C@@H](NC(=O)OC(C)(C)C)c4ccccc4)C[C@@](O)([C@@H](OC(=O)c4ccccc4)[C@H]21)C3(C)C` [Doc, Docetaxel, reference compound]?
A: PC-3 cell viability, Docetaxel (PC-3 cells [4]; MTT, 48 h, 1-100 nM): significant reduction in cell viability at concentrations of 10 nM, 25 nM, 50 nM, and 100 nM, with a dose-dependent effect; LC3-I / LC3-II expression, Doc/AM10 experiment ([5]; 48 h): significant increase in LC3-II expression; cleaved caspase-3 / apoptosis [6]: trigger apoptotic cell death by activating the executor caspase-3

Q: With `CNC(=O)c1ccc(N2C(=S)N(c3ccc(C#N)c(C(F)(F)F)c3)C(=O)C2(C)C)cc1F` [Enzalutamide] as the compound, how does the autophagic response (autophagic response) read?
A: Its autophagic response is “activate an autophagic response that reduces their effectiveness”.

Q: Which “cytotoxic effects against breast and colon cancer cells” value [7] does the source give for `Cc1ccc(S(=O)(=O)[N-]Br)cc1.[Na+]` [bromamine T] here?
A: Its value is “strong cytotoxic effects against breast and colon cancer cells”.

Q: For FYCO1-LIR peptide, which Kd (LC3B (Homo sapiens)) is on record?
A: Its Kd is 3.1 µM.
